Values after ≈ are worked out from the molar mass of the structure shown. Numbered stars: 1 amine (or outer) side, 2 acyl side, 3 side chain; on linkers, the order of the positions; unused ones are H or OH. Square brackets hold non-standard residues; d marks the D form. Peptide text beside a SMILES is read from it. X1 = CC(C)(O)/C=C/[C@]12C[C@@H](C(=O)[*:2])N([*:1])[C@@H]1Nc1ccc(Br)cc12
How the values were obtained:
Staphylococcus aureus [1] = experiment: Antibacterial activity against methicillin resistant Staphylococcus aureus assessed as reduction in bacterial growth; type: functional, organism-based
MDA-MB-231 = experiment: Growth inhibition of human MDA-MB-231 cells assessed inhibition of cell growth; type: functional
Aspergillus sydowii = experiment: Antifungal activity against Aspergillus sydowii SCSIO 00305 assessed as inhibition of fungal growth; type: functional, organism-based
HCT-8 = experiment: Cytotoxicity against human HCT-8 cells assessed as inhibition of cell growth incubated for 48 hrs by MTT assay; type: functional, cell-based; conditions: HCT-8, 48 h
MOLT-4 = experiment: Cytotoxicity against human MOLT-4 cells assessed as inhibition of cell growth incubated for 24 hrs by MTT assay; type: functional, cell-based; conditions: MOLT-4, 24 h
Bacillus subtilis [2] = experiment: Antibacterial activity against Bacillus subtilis ATCC 6633 assessed as reduction in bacterial growth; type: functional
Staphylococcus aureus [3] = experiment: Antibacterial activity against Staphylococcus aureus FDA 209P JC-1 assessed as reduction in bacterial growth; type: functional
[4] = tested on: Trypanosoma brucei rhodesiense; experiment: Antitrypanosomal activity against Trypanosoma brucei rhodesiense IL-1501 assessed as inhibition of cell growth incubated for 69 hrs by AlamarBlue assay; type: functional, organism-based
Staphylococcus aureus [5] = experiment: Antibacterial activity against Staphylococcus aureus KCTC 1927 assessed as reduction in bacterial growth incubated for 24 hrs by Mueller-Hinton broth based assay; type: functional
Kocuria rhizophila [6] = experiment: Antibacterial activity against Kocuria rhizophila KCTC 1915 assessed as reduction in bacterial growth incubated for 24 hrs by Mueller-Hinton broth based assay; type: functional
Bacillus subtilis [7] = experiment: Antibacterial activity against Bacillus subtilis KCTC 1021 assessed as reduction in bacterial growth incubated for 24 hrs by Mueller-Hinton broth based assay; type: functional
Staphylococcus aureus [8] = experiment: Antibacterial activity against Staphylococcus aureus assessed as reduction in bacterial growth; type: functional
HeLa = experiment: Cytotoxicity against human HeLa cells assessed as inhibition of cell growth; type: functional, cell-based
Bacillus subtilis [9] = experiment: Antibacterial activity against Bacillus subtilis PCI219 assessed as reduction in bacterial growth; type: functional
Kocuria rhizophila [10] = experiment: Antibacterial activity against Kocuria rhizophila ATCC9341 assessed as reduction in bacterial growth; type: functional
P388 = experiment: Cytotoxicity against mouse P388 cells assessed as inhibition of cell growth; type: functional, cell-based
HL-60 = experiment: Cytotoxicity against human HL-60 cells assessed as inhibition of cell growth; type: functional, cell-based
MH60 = experiment: Cytotoxicity in mouse MH60 cells assessed as inhibition of cell growth; type: functional, cell-based
Escherichia coli = experiment: Antibacterial activity against Escherichia coli assessed as reduction in bacterial growth; type: functional
[11] = tested on: Trypanosoma brucei rhodesiense; experiment: Antitrypanosomal activity against Trypanosoma brucei rhodesiense; type: functional, organism-based
A549 = experiment: Cytotoxicity against human A549 cells assessed as inhibition of cell growth incubated for 48 hrs by MTT assay; type: functional, cell-based; conditions: A549, 48 h
Candida albicans = experiment: Antifungal activity against Candida albicans assessed as reduction in […] growth; type: functional
RAW264.7 = experiment: Inhibition of LPS-induced NO production in mouse RAW264.7 cells; type: functional, cell-based

Compound `CC[C@H](C)[C@H]1O[C@@H](CC(C)=O)O[C@@]1(C)/C=C/C1=CC2=C(Cl)C(=O)[C@](C)(O)[C@H](OC(C)=O)[C@H]2CO1` has an MIC (Staphylococcus aureus [1]) of 12.5 µg/mL (≈ 25.2 µM).

Compound `CCCC[C@H]1CCCCC[C@@H](OC)c2cc(O)c(c(O)c2)[C@@H](CCCC)CCC[C@@H](Cl)C[C@@H](OC)c2cc(O)c1c(O)c2` has a GI50 (MDA-MB-231) of 0.72 µM.

`COc1cc2oc3cc4c(c(OC)c3c(=O)c2c(OC)c1Cl)[C@@H]1C=CO[C@@H]1O4` gave an IC50 (Aspergillus sydowii) of 2.9 µM.

`C=C(COC(=O)Cc1ccc(O)c(Cl)c1)[C@@]12O[C@@H]1[C@@]1(C)C(=CC2=O)CC[C@@H](O)[C@@H]1C` gave an IC50 (HCT-8) of 7.3 µM.

Compound `CC(C)C[C@@H]1NC(=O)[C@@H]2C[C@]3(/C=C/C(C)(C)O)c4cc(Br)ccc4N[C@H]3N2C(=O)[C@@H]2CCCN2C(=O)[C@H](C(C)C)NC(=O)[C@@H]2CCCN2C(=O)[C@H](CC(C)C)NC(=O)[C@@H]2CCCN2C(=O)[C@H](CC(C)C)NC(=O)[C@@H]2CCCN2C(=O)[C@H](Cc2ccccc2)NC1=O` (cyclo(FPLPLPVP[X1]L)) has an IC50 (MOLT-4) of 4.7 µM.

`CO[C@H]1C[C@@H](O)[C@H](OC)c2oc3c4c5c(c(O)c3c(=O)c21)-c1c(cc2c(Cl)c(C)[nH]c(=O)c2c1O)C[C@H]5OCO4` gave an MIC (Bacillus subtilis [2]) of 0.098 µg/mL (≈ 0.172 µM) and an MIC (Staphylococcus aureus [3]) of 0.049 µg/mL (≈ 0.086 µM).

`C=C(COC(=O)Cc1cc(O)c(O)c(Cl)c1)[C@@]12O[C@@H]1[C@@]1(C)C(=CC2=O)CC[C@@H](O)[C@@H]1C` showed an IC50 (HCT-8) of 5.4 µM.

With `Oc1cc(Br)cc(Br)c1Oc1cc(Br)c(Br)c(Br)c1Oc1ccc(Br)cc1Br` the IC50 [4] was 1.2 µM.

`CC(C)=C(C/C=C(\C)CC[C@@H](Cl)C(C)(C)Cl)C[C@@]1(O)C(=O)c2cc(O)cc(O)c2C(=O)[C@@]1(C)Cl` gave an MIC (Staphylococcus aureus [5]) of 1 µg/mL (≈ 1.88 µM), an MIC (Kocuria rhizophila [6]) of 1 µg/mL (≈ 1.88 µM) and an MIC (Bacillus subtilis [7]) of 1 µg/mL (≈ 1.88 µM).

With `O=C1Oc2cc(Br)c(O)c(Br)c2/C1=C/c1cc(Br)c(O)c(Br)c1` the MIC (Staphylococcus aureus [8]) was 5.2 µM (≈ 2.96 µg/mL).

With `CO[C@H]1C[C@@H](O)[C@H](OC)c2oc3c4c5c(c(O)c3c(=O)c21)-c1c(cc2c(Cl)c(C)n(N)c(=O)c2c1O)C[C@H]5OCO4` the MIC (Bacillus subtilis [2]) was 0.001 µg/mL (≈ 0.00171 µM), the MIC (Staphylococcus aureus [3]) was 0.001 µg/mL (≈ 0.00171 µM) and the IC50 (HeLa) was 40 pM.

With `O=C1NC[C@H](c2cc(Br)c(OC[C@H](O)CNC(=O)/C(Cc3cc(Br)c(O)c(Br)c3O)=N\O)c(Br)c2)O1` the MIC (Staphylococcus aureus [8]) was 5.2 µM (≈ 3.96 µg/mL).

For `CCCC[C@H]1CCCCC[C@@H](O)c2cc(O)c(c(O)c2)[C@@H](CCCC)CCC[C@@H](Cl)C[C@@H](OC)c2cc(O)c1c(O)c2`, the GI50 (MDA-MB-231) was 0.72 µM.

With `Cc1c(O)cc2c(c1O)C(=O)C1=C(OC(C)(C)[C@H](Cl)C1)C2=O` the MIC (Bacillus subtilis [9]) was 6.25 µg/mL (≈ 19.4 µM), the MIC (Kocuria rhizophila [10]) was 6.25 µg/mL (≈ 19.4 µM) and the IC50 (P388) was 9.8 µM. For the same compound, the MIC (Staphylococcus aureus [3]) was 6.25 µg/mL (≈ 19.4 µM).

`CC(C)[C@@]1(O)/C=C/[C@](C)(O)CC[C@H](Cl)[C@@]2(C)CC[C@H](O2)[C@](C)(O)CC1` was tested, and the IC50 (HL-60) was 3.67 µM.

Compound `CC(C)/C1=C/[C@H](O)[C@](C)(O)CC[C@H](Cl)[C@@]2(C)CC[C@H](O2)[C@](C)(O)CC1` has an IC50 (HL-60) of 3.67 µM.

Compound `CC(C)=CCC1OC1(C)C1(O)C(O)C(=O)CC[C@]1(O)CCl` (some centres not stated) has an IC50 (MH60) of 7.5 µM.

Compound `O=C(O)c1cn(C2CC2)c2cc(N3CCNCC3)c(F)cc2c1=O` [CIPROFLOXACIN] has an MIC (Escherichia coli) of 0.025 µM (≈ 0.00828 µg/mL).

With `CC(=O)O[C@@H](C/C=C/Cl)[C@@H](C)C(=O)/C=C/CCNC(=O)CC/C=C/C(C)(C)C` the IC50 [11] was 1.2 µM.

Compound `Oc1cc(Br)cc(Br)c1Oc1cc(Br)c(Br)c(Br)c1Oc1ccc(Br)cc1I` has an IC50 [4] of 0.7 µM.

`O=C1C=Cc2c3c4c(c(O)ccc4c4ccc(O)c1c24)[C@@H](O)[C@H](Cl)[C@@H]3O` showed an MIC (Escherichia coli) of 6.25 µM (≈ 2.3 µg/mL).

With `CC(C)=C1C[C@@]2(COC(=O)Cc3cc(O)c(O)c(Cl)c3)C(=CC1=O)CC[C@@H](O)[C@@H]2C` the IC50 (A549) was 3.2 µM.

Work on `O=C1NC(=O)c2c1c1c3cc(Cl)ccc3[nH]c1c1[nH]c3ccc(Cl)cc3c21` yielded an MIC (Candida albicans) of 1 µg/mL (≈ 2.54 µM).

Compound `CC(=O)/C=C/C1=CC[C@H]2[C@@H](C[C@@H]1C)OC(=O)[C@]2(O)CCl` has an IC50 (RAW264.7) of 16 µM.

Source: ChEMBL document CHEMBL5385919, “A Survey of Recently Discovered Naturally Occurring Organohalogen Compounds” (J Nat Prod, 2024)
